{"source": "patent US5276053A", "about": "“Polycyclic amines useful as cerebrovascular agents” (Warner-Lambert Company, priority 1992, dated 1994)", "key": {"[1]": {"system": "cultured rat cortical neurons", "assay": "Inhibition of hypoxia stimulated [^45 Ca] influx (HCI) into cultured rat cortical neurons", "type": "cell-based", "details": "Cortical neurone, 4 h, hypoxia stimulated [^45 Ca] influx (CHCI), Table 3, nitrogen (95%) and CO2 (5%), 37° C., four hours, read-out: CGCI IC50", "description": "(§1) Since the influx of calcium is thought to be central to the damage resulting from ischemia, the ability of the compounds of the instant invention to inhibit the hypoxia and glutamate-stimulated influx of calcium into cultured rat cortical neurons (an assay representative of cerebrovascular disorders resulting from stroke or brain injury) is shown in Table 2 and Table 3, respectively. The methodology for determining the ability of the compounds of the instant invention to inhibit the glutamate-stimulated calcium influx (GCI) into cultured rat cortical neurons is to be found in: A. W. Probert and F. W. Marcoux, Soc. Neurosci. Abstr. 13, Part II, 754 (1987). Using a similar culture system, the ability of the compounds of the instant invention to inhibit the hypoxia-stimulated influx of calcium (HCI) was determined by incubating cultured cells in an atmosphere of nitrogen (95%) and CO2 (5%) at 37° C. for a period of four hours. Calcium influx was determined by subtraction of the stimulated influx in the presence of tetrodotoxin (3 μM) and magnesium (10 mM) from that found in the absence (control) and in the presence of the test substance."}, "[2]": {"system": "cultured rat cortical neurons", "assay": "Inhibition of glutamate stimulated [^45 Ca] influx (GCI) into cultured rat cortical neurons", "type": "cell-based", "details": "Cortical neurone, read-out: CGCI IC50", "description": "as §1"}, "[3]": {"biological_target": "phencyclidine (PCP) receptors", "assay": "Inhibition of [^3 H]TCP receptor binding (RBS1)", "protocol": "The ability of the compounds of the instant invention to interact with phencyclidine (PCP) receptors which represents a noncompetitive NMDA antagonist binding site, is shown in Table 1. Tritiated 1[1-(2-thienyl)cyclohexyl]piperidine (TCP) binding, designated RBS1, was carried out essentially as described in J. Pharmacol. Exp. Ther., 238, 739-749 (1986)."}}, "note": "Counter-ions that a name gives are not always drawn.", "data": [{"smiles": "CNC12CCCCC1Sc1ccccc12", "note": "(stereo not drawn) [* (X = S), reference compound]", "values": [{"measurement": "IC50", "setting": "[1]", "value": 180, "unit": "nM"}, {"measurement": "IC50", "setting": "[2]", "value": 210, "unit": "nM"}]}, {"smiles": "N[C@]12CCCC[C@H]1CCc1ccccc12", "note": "(relative stereo) [Example 2, Cis-1,3,4,9-10,10a-hexahydro-4a(2H)-phenanthrenamine monohydrochloride]", "values": [{"measurement": "IC50", "setting": "[3]", "value": 20, "unit": "nM"}, {"measurement": "IC50", "setting": "[2]", "value": 100, "unit": "nM"}]}, {"smiles": "CNC12CCCCC1Cc1ccccc12", "note": "(stereo not drawn) [* (X = CH2)]", "values": [{"measurement": "IC50", "setting": "[3]", "value": 16, "unit": "nM"}]}, {"smiles": "C=CCN[C@]12CCCC[C@H]1CCc1ccccc12", "note": "(relative stereo) [Example 5, N-Allyl-cis-1,3,4,9,10,10a-hexahydro-4a(2H)-phenanthrenamine monohydrochloride]", "values": [{"measurement": "IC50", "setting": "[3]", "value": 100, "unit": "nM"}, {"measurement": "IC50", "setting": "[1]", "value": 660, "unit": "nM"}, {"measurement": "IC50", "setting": "[2]", "value": 902, "unit": "nM"}]}, {"smiles": "CN[C@]12CCCC[C@H]1CCc1ccccc12", "note": "(relative stereo) [Example 4, Cis-1,3,4,9,10,10a-hexahydro-N-methyl-4a(2H)-phenanthrenamine monohydrochloride]", "values": [{"measurement": "IC50", "setting": "[3]", "value": 15, "unit": "nM"}, {"measurement": "IC50", "setting": "[1]", "value": 180, "unit": "nM"}, {"measurement": "IC50", "setting": "[2]", "value": 410, "unit": "nM"}]}, {"smiles": "c1csc(C2(N3CCCCC3)CCCCC2)c1", "note": "[TCP, 1[1-(2-thienyl)cyclohexyl]piperidine]", "values": [{"measurement": "IC50", "setting": "[3]", "value": 9, "unit": "nM"}]}]}
